Experiments:
phospho-p65 = experiment: Mice study #2: phospho-p65 immunoblotting of gingival samples; format: in vivo, C57BL/6 mice; conditions: pattern as for Myd88 (disease higher than control and treatment)
Method: Western blot analysis. Cells were seeded in 60 mm plates with a density of 5×10^5 cells per plate and washed briefly with Dulbecco's phosphate-buffered saline (Gibco, Waltham, MA, USA). Whole cell lysates were prepared using RIPA lysis buffer containing protease inhibitor cocktail (Sigma-Aldrich). Total protein concentration was determined using the BCA reagent (Pierce, Waltham, MA, USA). 20 μg of total protein were resolved on sodium dodecyl sulfate-polyacrylamide gel electrophoresis and transferred to polyvinylidenedifluoride membrane and immunoblotted. The blots were incubated for 1 h in 1% bovine serum albumin (BSA) (Sigma-Aldrich) to block the non-specific bindings followed by over-night incubation in primary antibodies (MyD88 and pP65 from Cell Signaling Technology, and human LITAF ThermoFisher Sigma) at 4° C. on shaker. Next day, blots were washed for three times (10 min each) in Tris-buffered saline containing 1% Tween20 (TBST) followed by incubation with secondary antibody (Goat anti-rabbit IgG HRP) with 1:10,000 dilution for 1 h. […] The band intensities were quantified using software ImageJ (NIH, USA) and relative protein levels were normalized by β-actin (Cell Signaling). […] The band intensities were measured by the software ImageJ (NIH, USA), and relative protein levels were normalized by β-actin.

Myd88 = experiment: Mice study #1: Myd88 immunohistochemistry of gingival tissue; format: in vivo; conditions: BALB/c
Method: Mice study #1: Pilot study to establish DIGO disease model. Sterile sutures (5-0 Silk thread, Ethicon, Johnson & Johnson, Somerville, NJ) were placed around the lower central incisors on both sides in BALB/c (Male) mice anaesthetized conditions using Ketamine (90-100 mg/kg bodyweight) and Xylazine (5-10 mg/kg body weight) using a 0.1 cc syringe with a 25-gauge needle intraperitoneally (FIG. 37). Mice were checked daily for intact suture placement and replaced when necessary. […] The controls were injected with the vehicle used to dissolve the drug, which was 10% ethanol and 10% polyethylene glycol castor oil (both Sigma-Aldrich, St. Louis MO) in distilled water. For preventive treatments, Folic acid was supplemented in the drinking water (10 μg/ml) ad libitum and methylcellulose gel with the Folic acid (100 μg/ml) microspheres was applied daily on the anterior gingiva. The three groups in this study were: • 1. Control group (n=1): no interventions were performed • 2. […] Treatments were continued for 28 days and digital images were captured over the time course.
Histopathology and Immunohistochemistry. […]
Immunohistochemical analysis. […] Then, we examined the histopathological images of the mice model type BALB/c and we assessed the expressions of the Myd88 in the disease group in comparison to the negative control and Folic acid treated group. […]

Nc1nc2ncc(CNc3ccc(C(=O)N[C@@H](CCC(=O)O)C(=O)O)cc3)nc2c(=O)[nH]1 [folic acid]
phospho p65 expression, pattern across groups (phospho-p65): a similar pattern | Myd88 expression in the epithelium, disease group relative to folic acid prevention group (Myd88): significantly higher compared to the prevention and control groups
